In CN111909135A, “一种azd9291氘代物甲磺酸盐新盐型及其制备方法” (Tianjin University, priority 2020, dated 2020):

What was measured:
[1] = Crystal form stability, high temperature (60℃) and accelerated (40℃, RH75%) tests; type: physicochemical
[2] = Water solubility of the crystal form at 25℃ (Chinese Pharmacopoeia 2015, part IV); type: physicochemical

## C=CC(=O)Nc1cc(Nc2nccc(-c3cn(C)c4ccccc34)n2)c(OC)cc1N(C)CCN(C)C [AZD9291氘代物甲磺酸盐新盐型]
[1]; 40℃, RH75%, accelerated stability, 0, 5 and 10 days
  crystal form transformation (XRD): 未发生 晶型转变
[1]; high temperature (60℃, humidity not limited) and accelerated (40℃, RH75%), 5 and 10 days
  appearance, colour and crystal form change: 外观色泽及晶 型均无变化
[2]
  increase in solubility relative to AZD9291 deuterated compound mesylate (WO2018214886A1 and CN201810495698.7): 3 fold
